Patent US20100267561A1, “HERBICIDAL PYRIDAZINONE DERIVATIVES” (priority 2007, published 2010)

Key:
Test in all cases: Test B pre-/postemergence plant response
Format in all cases: in vivo
[1] = test system: woolly cupgrass (Eriochloa villosa)
Outline: (§1)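 Preemergence and postemergence (plants 2-18 cm, 1- to 4-leaf stage) applications used test chemicals in a non-phytotoxic solvent with surfactant. Plants were held in a greenhouse 13 to 15 days, then rated visually against controls on a 0-100 scale (0 no effect, 100 complete control).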

[2] = test system: lambsquarters (Chenopodium album); conditions: for Lambsquarters plant response rating: postemergence, 0-100 scale; for Plant response rating, Lambsquarters: Postemergence
Outline: as §1

[3] = test system: goosegrass (Eleusine indica)
Outline: as §1

[4] = test system: giant foxtail (Setaria faberii)
Outline: as §1

[5] = test system: kochia (Kochia scoparia); conditions: for Kochia plant response rating: postemergence, 0-100 scale; for Plant response rating, Kochia: Postemergence
Outline: as §1

[6] = test system: johnsongrass (Sorghum halepense)
Outline: as §1

[7] = test system: catchweed bedstraw (Galium aparine); conditions: Preemergence; for Galium plant response rating: scale 0 to 100
Outline: as §1

[8] = test system: eastern black (E.B.) nightshade (Solanum ptycanthum); conditions: Preemergence; for Nightshade, E. B. plant response rating: scale 0 to 100
Outline: as §1

[9] = test system: pigweed (Amaranthus retroflexus)
Outline: as §1

[10] = test system: Russian thistle (Salsola iberica); conditions: Preemergence; for Russian Thistle plant response rating: scale 0 to 100
Outline: as §1

[11] = test system: soybean (Glycine max); conditions: for Soybean plant response rating: postemergence, 0-100 scale; for Plant response rating, Soybean: Postemergence
Outline: as §1

[12] = test system: common ragweed (Ambrosia elation); conditions: for Ragweed plant response rating: postemergence, 0-100 scale
Outline: as §1

[13] = test system: blackgrass (Alopecurus myosuroides); conditions: for Blackgrass plant response rating: 8 g ai/ha
Outline: as §1

[14] = test system: Italian ryegrass (Lolium multiflorum)
Outline: as §1

[15] = 8 g ai/ha, postemergence, 0-100 scale
[16] = Postemergence, 16 g ai/ha, scale 0 to 100
[17] = Postemergence, 31 g ai/ha, scale 0 to 100
[18] = Postemergence, 62 g ai/ha, scale 0 to 100, 0 no effect, 100 complete control
[19] = Preemergence, 31 g ai/ha, scale 0 to 100 (0 no effect, 100 complete control)
[20] = Preemergence, 62 g ai/ha, 0 to 100 scale, 0 no effect, 100 complete control
[21] = Preemergence, 8 g ai/ha, scale 0 to 100
[22] = Preemergence, 16 g ai/ha, scale 0 to 100
[23] = 62 g ai/ha, scale 0 to 100, 0 no effect, 100 complete control
[24] = 16 g ai/ha, postemergence, 0-100 scale
[25] = 31 g ai/ha, scale 0 to 100 (0 no effect, 100 complete control)
[26] = 62 g ai/ha, 0 to 100 scale, 0 no effect, 100 complete control

SMILES: CCc1cc(-c2ccc(C(F)(F)F)cc2)nn1-c1c(O)cnn(CC)c1=O [Compound 67]
- Cupgrass, Woolly plant response rating [1, 15]: 90
- Plant response rating, Cupgrass, Woolly [1, 16]: 100
- Plant response rating, Cupgrass, Woolly [1, 17]: 100
- Plant response rating, Cupgrass, Woolly [1, 18]: 100
- Plant response rating, Cupgrass, Woolly [1, 19]: 0
- Plant response rating, Cupgrass, Woolly [1, 20]: 0
- Cupgrass, Woolly plant response rating [1, 21]: 0
- Cupgrass, Woolly plant response rating [1, 22]: 0
- Lambsquarters plant response rating ([2]; 8 g ai/ha): 0
- Lambsquarters plant response rating ([2]; 16 g ai/ha): 0
- Plant response rating, Lambsquarters ([2]; 31 g ai/ha, scale 0 to 100): 0
- Plant response rating, Lambsquarters [2, 23]: 0
- Goosegrass plant response rating [3, 15]: 65
- Goosegrass plant response rating [3, 24]: 70
- Plant response rating, Goosegrass [3, 17]: 85
- Plant response rating, Goosegrass [3, 18]: 90
- Plant response rating, Goosegrass [3, 19]: 0
- Plant response rating, Goosegrass [3, 20]: 60
- Goosegrass plant response rating [3, 21]: 0
- Goosegrass plant response rating [3, 22]: 0
- Foxtail, Giant plant response rating [4, 15]: 85
- Plant response rating, Foxtail, Giant [4, 16]: 95
- Plant response rating, Foxtail, Giant [4, 17]: 100
- Plant response rating, Foxtail, Giant [4, 18]: 100
- Plant response rating, Foxtail, Giant [4, 19]: 0
- Plant response rating, Foxtail, Giant [4, 20]: 0
- Foxtail, Giant plant response rating [4, 21]: 0
- Foxtail, Giant plant response rating [4, 22]: 0
- Kochia plant response rating ([5]; 8 g ai/ha): 0
- Kochia plant response rating ([5]; 16 g ai/ha): 0
- Plant response rating, Kochia ([5]; 31 g ai/ha, scale 0 to 100): 0
- Plant response rating, Kochia [5, 23]: 0
- Johnsongrass plant response rating [6, 15]: 80
- Johnsongrass plant response rating [6, 24]: 98
- Plant response rating, Johnsongrass [6, 17]: 100
- Plant response rating, Johnsongrass [6, 18]: 100
- Plant response rating, Johnsongrass [6, 19]: 100
- Plant response rating, Johnsongrass [6, 20]: 100
- Johnsongrass plant response rating [6, 21]: 70
- Johnsongrass plant response rating [6, 22]: 90
- Plant response rating, Galium [7, 25]: 0
- Plant response rating, Galium [7, 26]: 0
- Galium plant response rating ([7]; 8 g ai/ha): 0
- Galium plant response rating ([7]; 16 g ai/ha): 0
- Plant response rating, Nightshade, E. B. [8, 25]: 0
- Plant response rating, Nightshade, E. B. [8, 26]: 0
- Nightshade, E. B. plant response rating ([8]; 8 g ai/ha): 0
- Nightshade, E. B. plant response rating ([8]; 16 g ai/ha): 0
- Pigweed plant response rating [9, 15]: 0
- Pigweed plant response rating [9, 24]: 0
- Plant response rating, Pigweed [9, 17]: 0
- Plant response rating, Pigweed [9, 18]: 0
- Plant response rating, Pigweed [9, 19]: 0
- Plant response rating, Pigweed [9, 20]: 0
- Pigweed plant response rating [9, 21]: 0
- Pigweed plant response rating [9, 22]: 0
- Plant response rating, Russian Thistle [10, 25]: 0
- Plant response rating, Russian Thistle [10, 26]: 0
- Russian Thistle plant response rating ([10]; 8 g ai/ha): 0
- Russian Thistle plant response rating ([10]; 16 g ai/ha): 0
- Soybean plant response rating ([11]; 8 g ai/ha): 0
- Soybean plant response rating ([11]; 16 g ai/ha): 0
- Plant response rating, Soybean ([11]; 31 g ai/ha, scale 0 to 100): 0
- Plant response rating, Soybean [11, 23]: 15
- Ragweed plant response rating ([12]; 8 g ai/ha): 0
- Ragweed plant response rating ([12]; 16 g ai/ha): 0
- Plant response rating, Ragweed [12, 17]: 0
- Plant response rating, Ragweed [12, 18]: 0
- Plant response rating, Ragweed [12, 20]: 0
- Blackgrass plant response rating ([13]; postemergence, 0-100 scale): 85
- Plant response rating, Blackgrass [13, 16]: 100
- Plant response rating, Blackgrass [13, 17]: 100
- Plant response rating, Blackgrass [13, 18]: 100
- Plant response rating, Blackgrass ([13]; Preemergence, 16 g ai/ha, scale 0 to 100 (0 no effect, 100 complete control)): 100
- Plant response rating, Blackgrass [13, 19]: 100
- Plant response rating, Blackgrass [13, 20]: 100
- Blackgrass plant response rating ([13]; Preemergence, scale 0 to 100): 100
- Ryegrass, Italian plant response rating [14, 15]: 100
- Ryegrass, Italian plant response rating [14, 24]: 100
- Plant response rating, Ryegrass, Italian [14, 17]: 100
- Plant response rating, Ryegrass, Italian [14, 18]: 100
- Plant response rating, Ryegrass, Italian [14, 19]: 100
- Plant response rating, Ryegrass, Italian [14, 20]: 100
- Ryegrass, Italian plant response rating [14, 21]: 100
- Ryegrass, Italian plant response rating [14, 22]: 100
